Source: patent US20180371044A1, “PEPTIDOMIMETIC MACROCYCLES” (Aileron Therapeutics, Inc., priority 2015, published 2018)
Where a SMILES comes first, the peptide text is derived from it. Bridges are numbered along the chain shown (N, C = ends). [ ]: non-standard residue; d: D form. NMeY = CN[C@@H](Cc1ccc(O)cc1)C(=O)O; R8 = C=CCCCCCC[C@@](C)(N)C(=O)O; Cit = NC(=O)NCCC[C@H](N)C(=O)O; S5 = C=CCCC[C@](C)(N)C(=O)O; Nle = CCCC[C@H](N)C(=O)O

Columns and labels:
[1] = Plasma PK/PD study in rats; assay type: in vivo, rat; conditions: male Sprague-Dawley rats
Protocol: Five peptidomimetic macrocycles of the invention, as well as sermorelin, were studied to determine pharmacokinetic and pharmacodynamic parameters in rats. Male Sprague-Dawley rats (300 g, non-fasted, cannulated) were used. The study had three arms: IV administration, SC administration, and SC administration (vehicle control). For experiments using sermorelin, a dose level of 3 mg/kg IV/SC bolus was used (dose volume of […] dose and dose concentration of 1 mg/mL). The vehicle used was: 10 wt % N, N-Dimethylacetamide, 10 wt % DMSO, 2 wt % Solutol HS 15 in water for injection containing 45 mg/mL (4.5 wt %) Mannitol and 25 mM (0.38 wt %) Histidine (pH 7.5; 320 mOsm/kg). The peptide was first dissolved at high concentration in DMA and DMSO before a second dilution in Solutol vehicle.
For experiments using peptidomimetic macrocycles, 0.1 mL of DMA and 0.1 mL of DMSO were used to combine with each mg of macrocycle (˜4.3-4.5 mg of macrocycle used in each experiment). Sonication was used to ensure complete solubilization. 0.8 mL of Solutol vehicle was used for each mg of macrocycle in DMA/DMSO. The solutions were mixed gently with pipet or light vortexing. Fresh vials were used for each day of dosing, and macrocycles were stored solid at −20° C. prior to formulation.
For each study arm, 2 rats were bled (350 μL) at specific time points (5 min, 15 min, 30 min, 1 h, 2 h, 4 h, 8 h, 24 h, and 48 h) and a 150 μL bleed was performed just before dosing. Plasma was prepared into K2EDTA tubes by centrifuging for 20 minutes at 4° C. at 2000G maximum 30 minutes after collection. From each 350 μL bleed, 120 μL were transferred to one tube for PK studies and 50 μL to another tube for PD studies and frozen immediately. From the 150 μL bleed, 70 μL were transferred to one tube for PD studies and frozen immediately.

[2] = target: T1, human GHRH receptor (hGHRHR) (Homo sapiens, UniProt Q02643); assay: GHRHR agonism measured by cAMP (HTRF) in human 293 cells expressing hGHRHR; assay type: cell-based; conditions: 30 min at RT;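 note: receptor expressed transiently or stably, cells stimulated in serum-free medium, EC50 from a non-linear dose-response fit, maximal response defined by reference GHRH stimulation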
T1 construct: expressed in transfected cells; host or cells: Human 293 cells
T1 sequence (Q02643 23-423): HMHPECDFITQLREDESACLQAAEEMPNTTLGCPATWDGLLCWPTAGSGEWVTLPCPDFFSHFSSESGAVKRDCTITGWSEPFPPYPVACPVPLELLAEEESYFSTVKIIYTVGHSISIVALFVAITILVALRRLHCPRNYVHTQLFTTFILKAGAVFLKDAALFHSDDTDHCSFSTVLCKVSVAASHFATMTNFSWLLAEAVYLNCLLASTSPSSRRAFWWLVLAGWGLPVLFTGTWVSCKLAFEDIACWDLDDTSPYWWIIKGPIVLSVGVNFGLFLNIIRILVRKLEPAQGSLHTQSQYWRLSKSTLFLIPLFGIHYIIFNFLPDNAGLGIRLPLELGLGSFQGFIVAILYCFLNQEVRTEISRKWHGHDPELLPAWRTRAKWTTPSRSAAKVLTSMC

EC50 [2] [nM]	also measured	Structure (SMILES)
–	AUC Ext (%) [1]: 9.4%; MRT ([1]; rat, 3 mg/kg): 5.3 h; clearance ([1]; rat, 3 mg/kg, read-out: Clp (converted)): 1.65 mL/min/kg; Vd ([1]; rat, 3 mg/kg, read-out: Vdss): 0.524 L/kg; half-life ([1]; rat, 3 mg/kg, read-out: t ½ (converted)): 10.1 h; AUC(0-inf) ([1]; rat, 3 mg/kg, route not given): 30500 ng·h/mL	CCCC[C@@H]1NC(=O)[C@H]([C@@H](C)CC)NC(=O)[C@H](CC(=O)O)NC(=O)[C@@](C)(NC(=O)[C@H](CC(C)C)NC(=O)[C@H](C)NC(=O)[C@H](CCCCN)NC(=O)[C@H](CCCNC(=N)N)NC(=O)[C@H](C)NC(=O)[C@H](CO)NC(=O)[C@H](CC(C)C)NC(=O)[C@H](CCC(N)=O)NC(=O)[C@H](C)NC(=O)[C@H](CC(C)C)NC(=O)[C@@H](NC(=O)[C@H](CCCCN)NC(=O)[C@H](CCCNC(=N)N)NC(=O)[C@H](Cc2ccc(O)cc2)NC(=O)[C@H](CO)NC(=O)[C@H](C)NC(=O)[C@@H](NC(=O)[C@H](Cc2ccccc2)NC(=O)[C@@H](NC(=O)[C@H](C)NC(=O)[C@H](CC(=O)O)NC(=O)[C@H](C)NC(=O)[C@H](Cc2ccc(O)cc2)NC)[C@@H](C)CC)[C@@H](C)O)C(C)C)CCCC=CCCC[C@@](C)(C(=O)N[C@@H](CCCNC(=N)N)C(N)=O)NC1=O [SP-21] (H-[NMeY]ADAIFTASYRKVLAQLSARKAL[S5]DI[Nle][S5]R-NH2; staple 24-28; N-terminus and C-terminus assumed)
10 to 25	–	CCCC[C@H](NC(=O)[C@@H](NC(=O)[C@H](CC(=O)O)NC(=O)[C@H](CCC(N)=O)NC(=O)[C@H](CC(C)C)NC(=O)[C@H](CC(C)C)NC(=O)[C@H](CCCCN)NC(=O)[C@H](CCCNC(=N)N)NC(=O)[C@]1(C)CCCC=CCCCCCC[C@@](C)(NC(=O)[C@H](CCCNC(=N)N)NC(=O)[C@H](Cc2ccc(O)cc2)NC(=O)[C@H](CO)NC(=O)[C@H](CC(N)=O)NC(=O)[C@@H](NC(=O)[C@H](Cc2ccccc2)NC(=O)[C@@H](NC(=O)[C@H](C)NC(=O)[C@H](CC(=O)O)NC(=O)[C@@H](C)NC(=O)[C@@H](N)Cc2ccc(O)cc2)[C@@H](C)CC)[C@@H](C)O)C(=O)N[C@@H](C(C)C)C(=O)N[C@@H](CC(C)C)C(=O)NCC(=O)N[C@@H](CCC(N)=O)C(=O)N[C@@H](CC(C)C)C(=O)N[C@@H](CO)C(=O)N1)[C@@H](C)CC)C(=O)N[C@@H](CO)C(=O)N[C@@H](CCCNC(=N)N)C(N)=O [SP-4] (H-Y[dA]DAIFTNSYR[R8]VLGQLS[S5]RKLLQDI[Nle]SR-NH2; staple 12-19)
≤ 1	–	CCCC[C@H](NC(=O)[C@@H](NC(=O)[C@H](CC(=O)O)NC(=O)[C@H](CCC(N)=O)NC(=O)[C@H](CC(C)C)NC(=O)[C@H](C)NC(=O)[C@H](CCCCN)NC(=O)[C@H](CCCNC(=N)N)NC(=O)[C@H](C)NC(=O)[C@H](CO)NC(=O)[C@H](CC(C)C)NC(=O)[C@H](CCC(N)=O)NC(=O)[C@H](C)NC(=O)[C@H](CC(C)C)NC(=O)[C@@H](NC(=O)[C@H](CCCCN)NC(=O)[C@H](CCCNC(=N)N)NC(=O)[C@H](Cc1ccc(O)cc1)NC(=O)[C@H](CO)NC(=O)[C@H](C)NC(=O)[C@@H](NC(=O)[C@H](Cc1ccccc1)NC(=O)[C@@H](NC(=O)[C@H](C)NC(=O)[C@H](CC(=O)O)NC(=O)[C@H](C)NC(=O)[C@H](Cc1ccc(O)cc1)NC)[C@@H](C)CC)[C@@H](C)O)C(C)C)[C@@H](C)CC)C(=O)N[C@@H](CO)C(=O)N[C@@H](CCCNC(N)=O)C(N)=O [SP-49] (H-[NMeY]ADAIFTASYRKVLAQLSARKALQDI[Nle]S[Cit]-NH2)
≤ 1	–	CCCC[C@H](NC(=O)[C@@H](NC(=O)[C@H](CC(=O)O)NC(=O)[C@H](CCC(N)=O)NC(=O)[C@H](CC(C)C)NC(=O)[C@H](C)NC(=O)[C@H](CCCCN)NC(=O)[C@H](CCCNC(=N)N)NC(=O)[C@H](C)NC(=O)[C@H](CO)NC(=O)[C@H](CC(C)C)NC(=O)[C@H](CCC(N)=O)NC(=O)[C@H](C)NC(=O)[C@H](CC(C)C)NC(=O)[C@@H](NC(=O)[C@H](CCCCN)NC(=O)[C@H](CCCNC(=N)N)NC(=O)[C@H](Cc1ccc(O)cc1)NC(=O)[C@H](CO)NC(=O)[C@H](C)NC(=O)[C@@H](NC(=O)[C@H](Cc1ccccc1)NC(=O)[C@@H](NC(=O)[C@H](C)NC(=O)[C@H](CC(=O)O)NC(=O)[C@@H](C)NC(=O)[C@@H](N)Cc1ccc(O)cc1)[C@@H](C)CC)[C@@H](C)O)C(C)C)[C@@H](C)CC)C(=O)N[C@@H](CO)C(=O)N[C@@H](CCCNC(=N)N)C(N)=O [SP-46] (H-Y[dA]DAIFTASYRKVLAQLSARKALQDI[Nle]SR-NH2)
1 to 10	–	CCCC[C@H](NC(=O)[C@@H](NC(=O)[C@H](CC(=O)O)NC(=O)[C@H](CCC(N)=O)NC(=O)[C@H](CC(C)C)NC(=O)[C@]1(C)CCCC=CCCC[C@](C)(NC(=O)[C@H](CC(C)C)NC(=O)[C@H](CCC(N)=O)NC(=O)[C@H](C)NC(=O)[C@H](CC(C)C)NC(=O)[C@@H](NC(=O)[C@H](CCCCN)NC(=O)[C@H](CCCNC(=N)N)NC(=O)[C@H](Cc2ccc(O)cc2)NC(=O)[C@H](CO)NC(=O)[C@H](C)NC(=O)[C@@H](NC(=O)[C@H](Cc2ccccc2)NC(=O)[C@@H](NC(=O)[C@H](C)NC(=O)[C@H](CC(=O)O)NC(=O)[C@H](C)NC(=O)[C@H](Cc2ccc(O)cc2)NC)[C@@H](C)CC)[C@@H](C)O)C(C)C)C(=O)N[C@@H](C)C(=O)N[C@@H](CCCNC(=N)N)C(=O)N[C@@H](CCCCN)C(=O)N1)[C@@H](C)CC)C(=O)N[C@@H](CO)C(=O)N[C@@H](CCCNC(=N)N)C(N)=O [SP-16] (H-[NMeY]ADAIFTASYRKVLAQL[S5]ARK[S5]LQDI[Nle]SR-NH2; staple 18-22)
1 to 10	–	CCCC[C@H](NC(=O)[C@@H](NC(=O)[C@H](CC(=O)O)NC(=O)[C@H](CCC(N)=O)NC(=O)[C@H](CC(C)C)NC(=O)[C@H](C)NC(=O)[C@H](CCCCN)NC(=O)[C@H](CCCNC(=N)N)NC(=O)[C@H](C)NC(=O)[C@H](CO)NC(=O)[C@H](CC(C)C)NC(=O)[C@H](CCC(N)=O)NC(=O)[C@H](C)NC(=O)[C@H](CC(C)C)NC(=O)[C@@H](NC(=O)[C@H](CCCCN)NC(=O)[C@H](CCCNC(=N)N)NC(=O)[C@H](Cc1ccc(O)cc1)NC(=O)[C@H](CO)NC(=O)[C@@H](NC(=O)[C@@H](NC(=O)[C@H](Cc1ccccc1)NC(=O)[C@@H](NC(=O)[C@H](C)NC(=O)[C@H](CC(=O)O)NC(=O)[C@H](C)NC(=O)[C@H](Cc1ccc(O)cc1)NC)[C@@H](C)CC)[C@@H](C)O)[C@@H](C)O)C(C)C)[C@@H](C)CC)C(=O)N[C@@H](CO)C(=O)N[C@@H](CCCNC(=N)N)C(N)=O [SP-42] (H-[NMeY]ADAIFTTSYRKVLAQLSARKALQDI[Nle]SR-NH2)
≤ 1	–	CCCC[C@H](NC(=O)[C@@H](NC(=O)[C@H](CC(=O)O)NC(=O)[C@H](CCC(N)=O)NC(=O)[C@H](CC(C)C)NC(=O)[C@H](C)NC(=O)[C@H](CCCCN)NC(=O)[C@H](CCCNC(=N)N)NC(=O)[C@H](C)NC(=O)[C@H](CO)NC(=O)[C@H](CC(C)C)NC(=O)[C@H](CCC(N)=O)NC(=O)[C@H](C)NC(=O)[C@H](CC(C)C)NC(=O)[C@@H](NC(=O)[C@H](CCCCN)NC(=O)[C@H](CCCNC(=N)N)NC(=O)[C@H](Cc1ccc(O)cc1)NC(=O)[C@H](CO)NC(=O)[C@H](C)NC(=O)[C@@H](NC(=O)[C@H](Cc1ccccc1)NC(=O)[C@@H](NC(=O)[C@H](C)NC(=O)[C@H](CC(=O)O)NC(=O)[C@H](C)NC(=O)[C@H](Cc1ccc(O)cc1)NC)[C@@H](C)CC)[C@@H](C)O)C(C)C)[C@@H](C)CC)C(=O)N[C@@H](CC(=O)O)C(=O)N[C@@H](CCCNC(=N)N)C(N)=O [SP-45] (H-[NMeY]ADAIFTASYRKVLAQLSARKALQDI[Nle]DR-NH2)
1 to 10	–	CCCC[C@H](NC(=O)[C@@H](NC(=O)[C@H](CC(=O)O)NC(=O)[C@H](CCC(N)=O)NC(=O)[C@H](CC(C)C)NC(=O)[C@H](C)NC(=O)[C@H](CCCCN)NC(=O)[C@H](CCCNC(=N)N)NC(=O)[C@]1(C)CCCC=CCCC[C@](C)(NC(=O)[C@H](CC(C)C)NC(=O)[C@@H](NC(=O)[C@H](CCCCN)NC(=O)[C@H](CCCNC(=N)N)NC(=O)[C@H](Cc2ccc(O)cc2)NC(=O)[C@H](CO)NC(=O)[C@H](C)NC(=O)[C@@H](NC(=O)[C@H](Cc2ccccc2)NC(=O)[C@@H](NC(=O)[C@H](C)NC(=O)[C@H](CC(=O)O)NC(=O)[C@H](C)NC(=O)[C@H](Cc2ccc(O)cc2)NC)[C@@H](C)CC)[C@@H](C)O)C(C)C)C(=O)N[C@@H](CCC(N)=O)C(=O)N[C@@H](CC(C)C)C(=O)N[C@@H](CO)C(=O)N1)[C@@H](C)CC)C(=O)N[C@@H](CO)C(=O)N[C@@H](CCCNC(=N)N)C(N)=O [SP-14] (H-[NMeY]ADAIFTASYRKVL[S5]QLS[S5]RKALQDI[Nle]SR-NH2; staple 15-19)
